Results reported in patent EP2776398B1, “SUBSTITUTED PYRAZOLYL-BASED UREA DERIVATIVES AS VANILLOID RECEPTOR LIGANDS” (Medifron DBT Inc., priority 2011, dated 2013).

Each compound was assayed against T1, vanilloid receptor 1 (VR1/TRPV1 receptor) (Homo sapiens, UniProt Q8NER1) (assay: Functional testing on vanilloid receptor 1: FLIPR Ca2+ influx assay against capsaicin (Cap) in transfected CHO K1 cells (pharmacological method II)). Conditions: @ 1µM; human VR1 in CHO K1 cells; capsaicin; relative to maximum inhibition with 10 µM capsazepine; read-out: inhibition (as a percentage), printed in column (f) Ki (human being) [nM] Cap.
T1 construct: expressed in transfected cells; host or cells: CHO K1 cells (ECACC), stably transfected
Format: cell-based
Design: key to (f) Ki (human being) [nM] Cap: agonist classification: AG = agonist
Excerpt: […]

T1 sequence (Q8NER1 whole entry): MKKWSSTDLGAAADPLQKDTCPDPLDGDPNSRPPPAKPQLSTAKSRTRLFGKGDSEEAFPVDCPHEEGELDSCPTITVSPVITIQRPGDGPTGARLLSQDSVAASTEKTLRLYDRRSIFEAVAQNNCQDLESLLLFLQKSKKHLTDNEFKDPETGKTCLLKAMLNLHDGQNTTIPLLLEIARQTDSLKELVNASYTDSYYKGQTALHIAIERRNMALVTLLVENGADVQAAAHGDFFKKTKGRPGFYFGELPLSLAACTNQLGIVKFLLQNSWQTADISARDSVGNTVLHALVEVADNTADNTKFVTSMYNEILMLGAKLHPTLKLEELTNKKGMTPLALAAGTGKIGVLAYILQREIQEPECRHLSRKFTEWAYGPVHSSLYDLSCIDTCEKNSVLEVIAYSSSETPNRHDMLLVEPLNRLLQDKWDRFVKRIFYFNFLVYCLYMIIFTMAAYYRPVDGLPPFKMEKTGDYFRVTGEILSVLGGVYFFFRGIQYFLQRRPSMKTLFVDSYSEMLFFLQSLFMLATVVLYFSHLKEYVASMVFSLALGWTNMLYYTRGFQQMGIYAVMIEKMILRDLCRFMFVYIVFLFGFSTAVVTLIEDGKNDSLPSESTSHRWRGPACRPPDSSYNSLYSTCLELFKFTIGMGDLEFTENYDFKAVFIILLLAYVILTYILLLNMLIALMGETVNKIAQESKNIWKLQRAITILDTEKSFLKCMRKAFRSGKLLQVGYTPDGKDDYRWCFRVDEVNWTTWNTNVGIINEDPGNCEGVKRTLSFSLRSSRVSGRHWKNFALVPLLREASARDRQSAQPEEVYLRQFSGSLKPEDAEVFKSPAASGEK

Compound	inhibition at 1 µM [%]
CC(C)(C)c1cc(CNC(=O)Nc2ccc(COCCO)c(F)c2)n(-c2ccc(F)cc2)n1 [A134, 1-[[5-tert-Butyl-2-(4-fluorophenyl)-2H-pyrazol-3-yl]-methyl]-3-[3-fluoro-4-(2-hydroxy-ethoxy-methyl)-phenyl]-urea]	23
CC(C(=O)NCc1cc(C(C)(C)C)nn1-c1ccc(F)cc1)c1ccc(COCCO)c(F)c1 (stereo not drawn) [A124, N-[[5-tert-Butyl-2-(4-fluorophenyl)-2H-pyrazol-3-yl]-methyl]-2-[3-fluoro-4-(2-hydroxy-ethoxy-methyl)-phenyl]-propionamide]	33

Same assay, conditions: @ 5µM; human VR1 in CHO K1 cells; capsaicin; relative to maximum inhibition with 10 µM capsazepine; read-out: inhibition (as a percentage), printed in column (f) Ki (human being) [nM] Cap

Compound	inhibition at 5 µM [%]
N#Cc1cccc(-n2nc(C(F)(F)F)cc2CNC(=O)Nc2ccc(CO)c(F)c2)c1 [A85, 1-[[2-(3-Cyano-phenyl)-5-(trifluoromethyl)-2H-pyrazol-3-yl]-methyl]-3-[3-fluoro-4-(hydroxymethyl)-phenyl]-urea]	53
CC(C)(C)c1cc(CNC(=O)Nc2ccc(C(CO)CO)c(F)c2)n(-c2cccc(Cl)c2)n1 [A152, 1-[[5-tert-Butyl-2-(3-chlorophenyl)-2H-pyrazol-3-yl]-methyl]-3-[3-fluoro-4-[2-hydroxy-1-(hydroxymethyl)-ethyl]-phenyl]-urea]	39

Same assay, conditions: human VR1 in CHO K1 cells; AG printed instead of a Ki

Compound	(f) Ki (human being) [nM] Cap: agonist classification
COc1ccc(NC(=O)NCc2cc(C(C)(C)C)nn2-c2cccc(Cl)c2)cc1OC [A13, 1-[[5-tert-Butyl-2-(3-chlorophenyl)-2H-pyrazol-3-yl]-methyl]-3-(3,4-dimethoxyphenyl)-urea]	AG

Same assay, conditions: read-out: (f) Ki (human being) [nM] Cap

Compound	Ki [nM]
CC(C)(C)c1cc(CNC(=O)Nc2ccc(CO)c(F)c2)n(-c2cccc(Cl)c2)n1 [A55, 1-[[5-tert-Butyl-2-(3-chlorophenyl)-2H-pyrazol-3-yl]-methyl]-3-[3-fluoro-4-(hydroxymethyl)-phenyl]-urea]	3
CC(C(=O)NCc1cc(C(F)(F)F)nn1-c1cccc(F)c1)c1ccc(COCCO)c(F)c1 (stereo not drawn) [A122, 2-[3-Fluoro-4-(2-hydroxy-ethoxy-methyl)-phenyl]-N-[[2-(3-fluorophenyl)-5-(trifluoromethyl)-2H-pyrazol-3-yl]-methyl]-propionamide]	45
O=C(NCc1cc(C(F)(F)F)nn1-c1cccc(Cl)c1)Nc1ccc(OCC(O)CO)c(F)c1 (stereo not drawn) [A25, 1-[[2-(3-Chlorophenyl)-5-(trifluoromethyl)-2H-pyrazol-3-yl]-methyl]-3-[4-(2,3-dihydroxy-propoxy)-3-fluoro-phenyl]-urea]	65
CC(C(=O)NCc1cc(C(F)(F)F)nn1-c1cccc(F)c1)c1ccc(C2(O)CC2)c(F)c1 (stereo not drawn) [A102, 2-[3-Fluoro-4-(1-hydroxy-cyclopropyl)-phenyl]-N-[[2-(3-fluorophenyl)-5-(trifluoromethyl)-2H-pyrazol-3-yl]-methyl]-propionamide]	15
Cc1cccc(-n2nc(C(F)(F)F)cc2CNC(=O)Nc2ccc(CO)c(F)c2)c1F [A76, 1-[3-Fluoro-4-(hydroxymethyl)-phenyl]-3-[[2-(2-fluoro-3-methyl-phenyl)-5-(trifluoromethyl)-2H-pyrazol-3-yl]-methyl]-urea]	41
O=C(Cc1ccc(CO)c(F)c1)NCc1cc(C(F)(F)F)nn1-c1cccc(Cl)c1 [A30, N-[[2-(3-Chlorophenyl)-5-(trifluoromethyl)-2H-pyrazol-3-yl]-methyl]-2-[3-fluoro-4-(hydroxymethyl)-phenyl]-acetamide]	21
COc1c(F)cc(CC(=O)NCc2cc(C(C)(C)C)nn2-c2ccc(F)c(Cl)c2)cc1F [A6, N-[[5-tert-Butyl-2-(3-chloro-4-fluoro-phenyl)-2H-pyrazol-3-yl]-methyl]-2-(3,5-difluoro-4-methoxy-phenyl)-acetamide]	14
O=C(NCc1cc(C(F)(F)F)nn1-c1ccccc1)Nc1ccc(CO)c(F)c1 [A58, 1-[3-Fluoro-4-(hydroxymethyl)-phenyl]-3-[[2-phenyl-5-(trifluoromethyl)-2H-pyrazol-3-yl]-methyl]-urea]	6
CC(C(=O)NCc1cc(C(F)(F)F)nn1-c1ccc(F)c(Cl)c1)c1ccc(COCCO)c(F)c1 (stereo not drawn) [A121, N-[[2-(3-Chloro-4-fluoro-phenyl)-5-(trifluoromethyl)-2H-pyrazol-3-yl]-methyl]-2-[3-fluoro-4-(2-hydroxy-ethoxy-methyl)-phenyl]-propionamide]	20
COc1ccc(-n2nc(C(F)(F)F)cc2CNC(=O)Nc2ccc(CO)c(F)c2)cc1F [A95, 1-[3-Fluoro-4-(hydroxymethyl)-phenyl]-3-[[2-(3-fluoro-4-methoxy-phenyl)-5-(trifluoromethyl)-2H-pyrazol-3-yl]-methyl]-urea]	13
CC(O)c1ccc(C(C)C(=O)NCc2cc(C(F)(F)F)nn2-c2cccc(Cl)c2)cc1F (stereo not drawn) [A99, N-[[2-(3-Chlorophenyl)-5-(trifluoromethyl)-2H-pyrazol-3-yl]-methyl]-2-[3-fluoro-4-(1-hydroxy-ethyl)-phenyl]-propionamide]	6
CC(C(=O)NCc1cc(C(F)(F)F)nn1-c1cccc(Cl)c1)c1ccc(C(O)CO)c(F)c1 (stereo not drawn) [A148, N-[[2-(3-Chlorophenyl)-5-(trifluoromethyl)-2H-pyrazol-3-yl]-methyl]-2-[4-(1,2-dihydroxy-ethyl)-3-fluoro-phenyl]-propionamide]	4
O=C(NCc1cc(C(F)(F)F)nn1-c1cccc(Cl)c1)Nc1ccc(OCC(O)CO)cc1 (stereo not drawn) [A23, 1-[[2-(3-Chlorophenyl)-5-(trifluoromethyl)-2H-pyrazol-3-yl]-methyl]-3-[4-(2,3-dihydroxy-propoxy)-phenyl]-urea]	35
O=C(NCc1cc(C(F)(F)F)nn1-c1cccc(Cl)c1)Nc1cc(F)c(O)c(F)c1 [A12, 1-[[2-(3-Chlorophenyl)-5-(trifluoromethyl)-2H-pyrazol-3-yl]-methyl]-3-(3,5-difluoro-4-hydroxy-phenyl)-urea]	8
COc1cccc(-n2nc(C(F)(F)F)cc2CNC(=O)Nc2ccc(CO)c(F)c2)c1 [A67, 1-[3-Fluoro-4-(hydroxymethyl)-phenyl]-3-[[2-(3-methoxyphenyl)-5-(trifluoromethyl)-2H-pyrazol-3-yl]-methyl]-urea]	43
Cc1ccc(-n2nc(C(F)(F)F)cc2CNC(=O)Nc2ccc(CO)c(F)c2)cc1 [A71, 1-[3-Fluoro-4-(hydroxymethyl)-phenyl]-3-[[2-(p-tolyl)-5-(trifluoromethyl)-2H-pyrazol-3-yl]-methyl]-urea]	42
COCc1cccc(-n2nc(C(F)(F)F)cc2CNC(=O)Nc2ccc(CO)c(F)c2)c1 [A84, 1-[3-Fluoro-4-(hydroxymethyl)-phenyl]-3-[[2-[3-(methoxymethyl)-phenyl]-5-(trifluoromethyl)-2H-pyrazol-3-yl]-methyl]-urea]	53
Cc1cccc(-n2nc(C(C)(C)C)cc2CNC(=O)Nc2ccc(CO)c(F)c2)c1 [A56, 1-[[5-tert-Butyl-2-(m-tolyl)-2H-pyrazol-3-yl]-methyl]-3-[3-fluoro-4-(hydroxymethyl)-phenyl]-urea]	2
COc1c(F)cc(C(C)C(=O)NCc2cc(C(F)(F)F)nn2-c2ccc(F)c(Cl)c2)cc1F (stereo not drawn) [A9, N-[[2-(3-Chloro-4-fluoro-phenyl)-5-(trifluoromethyl)-2H-pyrazol-3-yl]-methyl]-2-(3,5-difluoro-4-methoxy-phenyl)-propionamide]	7
COc1ccc(-n2nc(C(F)(F)F)cc2CNC(=O)Nc2ccc(CO)c(F)c2)cc1 [A68, 1-[3-Fluoro-4-(hydroxymethyl)-phenyl]-3-[[2-(4-methoxyphenyl)-5-(trifluoromethyl)-2H-pyrazol-3-yl]-methyl]-urea]	13
COc1ccc(-n2nc(C(F)(F)F)cc2CNC(=O)Nc2ccc(CO)c(F)c2)cc1C [A87, 1-[3-Fluoro-4-(hydroxymethyl)-phenyl]-3-[[2-(4-methoxy-3-methyl-phenyl)-5-(trifluoromethyl)-2H-pyrazol-3-yl]-methyl]-urea]	63
CC(C)c1cccc(-n2nc(C(F)(F)F)cc2CNC(=O)C(C)c2ccc(CCO)c(F)c2)c1 (stereo not drawn) [A137, 2-[3-Fluoro-4-(2-hydroxy-ethyl)-phenyl]-N-[[2-(3-isopropyl-phenyl)-5-(trifluoromethyl)-2H-pyrazol-3-yl]-methyl]-propionamide]	0.6
COc1c(F)cc(C(C)C(=O)NCc2cc(C3CC3)nn2-c2cccc(Cl)c2)cc1F (stereo not drawn) [A3, N-[[2-(3-Chlorophenyl)-5-cyclopropyl-2H-pyrazol-3-yl]-methyl]-2-(3,5-difluoro-4-methoxy-phenyl)-propionamide]	6
COc1cc(C(C)C(=O)NCc2cc(C(F)(F)F)nn2-c2cccc(Cl)c2)ccc1CO (stereo not drawn) [A50, N-[[2-(3-Chlorophenyl)-5-(trifluoromethyl)-2H-pyrazol-3-yl]-methyl]-2-[4-(hydroxymethyl)-3-methoxy-phenyl]-propionamide]	1
O=C(NCc1cc(C(F)(F)F)nn1-c1cccc(Cl)c1)Nc1ccc(CO)c(F)c1 [A59, 1-[[2-(3-Chlorophenyl)-5-(trifluoromethyl)-2H-pyrazol-3-yl]-methyl]-3-[3-fluoro-4-(hydroxymethyl)-phenyl]-urea]	7
O=C(NCc1cc(C(F)(F)F)nn1-c1cc(F)cc(F)c1)Nc1ccc(CO)c(F)c1 [A66, 1-[[2-(3,5-Difluoro-phenyl)-5-(trifluoromethyl)-2H-pyrazol-3-yl]-methyl]-3-[3-fluoro-4-(hydroxymethyl)-phenyl]-urea]	9
CC(C(=O)NCc1cc(C(C)(C)C)nn1-c1cccc(Cl)c1)c1ccc(C2(O)CC2)c(F)c1 (stereo not drawn) [A100, N-[[5-tert-Butyl-2-(3-chlorophenyl)-2H-pyrazol-3-yl]-methyl]-2-[3-fluoro-4-(1-hydroxy-cyclopropyl)-phenyl]-propionamide]	0.7
C[C@H](C(=O)NCc1cc(C(F)(F)F)nn1-c1cccc(Cl)c1)c1ccc(COCCO)c(F)c1 [A119, (2S)-N-[[2-(3-Chlorophenyl)-5-(trifluoromethyl)-2H-pyrazol-3-yl]-methyl]-2-[3-fluoro-4-(2-hydroxy-ethoxy-methyl)-phenyl]-propionamide]	57
